Assay results reported in patent US20220280476A1, “KCNT1 INHIBITORS AND METHODS OF USE” (Praxis Precision Medicines, Inc., priority 2019, published 2022).

The compounds below were run against T1, KCNT1 (KNa1.1, Slack) (Homo sapiens, UniProt Q5JUK3) (assay: KCNT1-WT-Basal patch clamp assay (SyncroPatch 384PE, HEK-TREX inducible cell line)). Conditions: tetracycline inducible HEK-TREX cells; perforated patch; holding -80 mV, 100 ms step to 0 mV; room temperature; read-out: KCNT1 WB IC50.
T1 construct: expressed in transfected cells; host or cells: HEK-TREX (tetracycline-inducible HEK cell line)
T1 sequence (Q5JUK3 1-1230): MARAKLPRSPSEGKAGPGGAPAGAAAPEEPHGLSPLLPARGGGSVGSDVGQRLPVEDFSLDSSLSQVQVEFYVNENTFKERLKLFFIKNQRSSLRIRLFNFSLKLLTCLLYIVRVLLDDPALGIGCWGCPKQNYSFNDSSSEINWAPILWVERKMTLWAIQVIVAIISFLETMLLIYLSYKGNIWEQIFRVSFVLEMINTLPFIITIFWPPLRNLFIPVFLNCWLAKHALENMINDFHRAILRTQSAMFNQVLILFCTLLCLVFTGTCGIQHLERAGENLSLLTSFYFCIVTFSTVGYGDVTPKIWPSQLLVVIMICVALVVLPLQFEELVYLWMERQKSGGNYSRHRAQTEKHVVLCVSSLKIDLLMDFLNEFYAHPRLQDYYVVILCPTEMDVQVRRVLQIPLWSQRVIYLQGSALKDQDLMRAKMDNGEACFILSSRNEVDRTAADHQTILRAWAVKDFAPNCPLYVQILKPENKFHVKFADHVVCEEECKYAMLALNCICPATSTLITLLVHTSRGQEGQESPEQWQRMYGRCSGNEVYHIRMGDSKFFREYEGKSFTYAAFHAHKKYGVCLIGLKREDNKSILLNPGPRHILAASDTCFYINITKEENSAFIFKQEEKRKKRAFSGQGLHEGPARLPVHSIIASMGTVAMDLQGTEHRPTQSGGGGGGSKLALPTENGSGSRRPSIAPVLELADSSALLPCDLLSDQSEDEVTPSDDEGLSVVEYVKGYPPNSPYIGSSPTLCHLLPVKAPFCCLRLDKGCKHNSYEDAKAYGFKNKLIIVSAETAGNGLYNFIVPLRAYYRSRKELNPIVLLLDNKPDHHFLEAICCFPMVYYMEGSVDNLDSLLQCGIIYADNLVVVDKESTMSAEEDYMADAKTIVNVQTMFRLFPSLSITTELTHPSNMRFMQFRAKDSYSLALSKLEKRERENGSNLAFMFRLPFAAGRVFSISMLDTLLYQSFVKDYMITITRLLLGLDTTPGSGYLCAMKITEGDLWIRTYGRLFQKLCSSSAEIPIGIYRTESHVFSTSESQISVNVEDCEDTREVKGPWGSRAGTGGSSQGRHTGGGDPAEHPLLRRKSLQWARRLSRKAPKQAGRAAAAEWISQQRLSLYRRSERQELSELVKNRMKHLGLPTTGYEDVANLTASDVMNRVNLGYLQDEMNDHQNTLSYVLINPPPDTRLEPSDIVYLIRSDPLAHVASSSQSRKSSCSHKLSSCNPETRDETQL
Assay type: cell-based
Experimental: KCNT1-WT-Basal—Patch Clamp Assay
Inhibition of KCNT1 (KNa1.1, Slack) was evaluated using a tetracycline inducible cell line (HEK-TREX). Currents were recorded using the SyncroPatch 384PE automated, patch clamp system. Pulse generation and data collection were performed with PatchController384 V1.3.0 and DataController384 V1.2.1 (Nanion Technologies). The access resistance and apparent membrane capacitance were estimated using built-in protocols. Current were recorded in perforated patch mode (10 μM escin) from a population of cells. The cells were lifted, triturated, and resuspended at 800,000 cells/ml. The cells were allowed to recover in the cell hotel prior to experimentation. Currents were recorded at room temperature. The external solution contained the following (in mM): NaCl 105, NMDG 40, KCl 4, MgCl2 1, CaCl2 5 and HEPES 10 (pH=7.4, Osmolarity ˜300 mOsm). The extracellular solution was used as the wash, reference and compound delivery solution. The internal solution contained the following (in mM): NaCl 70, KF 70, KCl 10, EGTA 5, HEPES 5 and Escin 0.01 (pH=7.2, Osmolarity ˜295 mOsm). Escin is made at a 5 mM stock in water, aliquoted, and stored at −20° C. The compound plate was created at 2× concentrated in the extracellular solution. The compound was diluted to 1:2 when added to the recording well. The amount of DMSO in the extracellular solution was held constant at the level used for the highest tested concentration. A holding potential of −80 mV with a 100 ms step to 0 mV was used. Mean current was measured during the step to 0 mV. […] The average mean current from 3 sweeps was calculated and the % inhibition of each compound was calculated. The % Inhibition as a function of the compound concentration was fit with a Hill equation to derive IC50, slope, min and max parameters. If KCNT1 inhibition was less than 50% at the highest tested concentration or if an IC50 could not be calculated, then a percent inhibition was reported in place of the IC50.

SMILES | IC50 [nM]
CS(=O)(=O)c1ccc(C(=O)N[C@@H]2CCc3cc(Cl)ccc32)s1 [Compound I-18] | ≤ 1000
CN(C)S(=O)(=O)Nc1ccc(C(=O)N[C@@H]2CCc3cc(Cl)ccc32)cc1 [Compound II-34] | 1000 to 20000
CCS(=O)(=O)Nc1ccc(C(=O)N[C@@H]2CCc3cc(Cl)ccc32)cc1 [Compound II-10, N-[(1R)-5-chloroindan-1-yl]-4-(ethylsulfonylamino)benzamide] | ≤ 1000
COc1cccc(O)c1C(=O)N[C@@H]1CCc2cc(Cl)ccc21 [Compound III-13] | 1000 to 20000
O=C(N[C@H]1CCc2cc(Cl)ccc21)c1ccc(NS(=O)(=O)C2CC2)cc1 [Compound II-18, N-[(1S)-5-chloroindan-1-yl]-4-(cyclopropylsulfonylamino)benzamide] | > 20000
CNS(=O)(=O)c1ccc(C(=O)N[C@@H]2CCc3cc(Cl)ccc32)s1 [Compound I-16] | ≤ 1000
O=C(N[C@H]1CCc2cc(Cl)ccc21)c1ccc(NS(=O)(=O)C(F)(F)F)cc1 [Compound II-29, N-[(1S)-5-chloroindan-1-yl]-4-(trifluoromethylsulfonylamino)benzamide] | ≥ 20000
COCc1ccc(C(=O)N[C@@H]2CCc3cc(Cl)ccc32)s1 [Compound I-36] | ≤ 1000
O=C(N[C@@H]1CCc2cc(Cl)ccc21)c1c(O)cccc1F [Compound III-8] | 1000 to 20000
O=C(N[C@@H]1CCc2cc(Cl)ccc21)c1ccc(S(=O)(=O)N2CC[C@H](O)C2)s1 [Compound I-41] | ≤ 1000
CCS(=O)(=O)N(C)c1ccc(C(=O)N[C@@H]2CCc3cc(Cl)ccc32)cc1 [Compound II-13] | ≤ 1000
Cn1c(C(=O)N[C@@H]2CCc3cc(Cl)ccc32)ccc1S(N)(=O)=O [Compound I-13] | ≥ 20000
O=C(N[C@@H]1CCc2cc(Cl)ccc21)c1ccc(S(=O)(=O)C(F)F)cc1 [Compound II-42] | ≤ 1000
COc1ccc(C(=O)NC2CCc3cc(Cl)ccc32)cc1 (single isomer, unassigned) [Compound II-7, N-(5-chloroindan-1-yl)-4-methoxy-benzamide] | ≥ 20000
CS(=O)(=O)Cc1ccc(C(=O)NC2CCc3cc(Cl)ccc32)cc1 (single isomer, unassigned) [Compound II-6, N-(5-chloroindan-1-yl)-4-(methylsulfonylmethyl)benzamide] | 1000 to 20000
O=C(N[C@@H]1CCc2cc(Cl)ccc21)c1ccc(F)cc1 (single isomer, unassigned) [Compound II-31] | ≥ 20000
CS(=O)(=O)N(c1ccc(C(=O)N[C@@H]2CCc3cc(Cl)ccc32)cc1)C1COC1 [Compound II-50] | 1000 to 20000
CS(=O)(=O)Nc1ccc(C(=O)N[C@H]2CCc3cc(Cl)ccc32)cc1 [Compound II-3] | ≥ 20000
CS(=O)(=O)c1ccc(C(=O)N[C@H]2CCCc3cc(Cl)ccc32)s1 (single isomer, unassigned) [Compound I-24] | ≤ 1000
CS(=O)(=O)c1ccc(C(=O)N[C@@H]2CCCc3cc(Cl)ccc32)s1 (single isomer, unassigned) [Compound I-25] | ≥ 20000
Cn1nc(C(F)(F)F)cc1C(=O)N[C@@H]1CCc2cc(Cl)ccc21 [Compound I-26] | ≤ 1000
O=C(N[C@@H]1CCc2cc(Cl)ccc21)c1cccc(Cl)c1O [Compound III-7] | ≤ 1000
CN(C)Cc1ccc(C(=O)N[C@@H]2CCc3cc(Cl)ccc32)s1 [Compound I-38] | 1000 to 20000
CNC(=O)c1ccc(C(=O)N[C@@H]2CCc3cc(Cl)ccc32)cc1 [Compound II-24] | 1000 to 20000
Cc1cc(S(C)(=O)=O)ccc1C(=O)N[C@@H]1CCc2cc(Cl)ccc21 [Compound II-33] | ≥ 20000
CS(=O)(=O)N(CCOC(F)(F)F)c1ccc(C(=O)N[C@@H]2CCc3cc(Cl)ccc32)cc1 [Compound II-46] | ≥ 20000

Continued, values first:

IC50 [nM] | SMILES
≤ 1000 | CN1CCN(S(=O)(=O)c2ccc(C(=O)N[C@@H]3CCc4cc(Cl)ccc43)s2)CC1 [Compound I-42]
≤ 1000 | COc1ccc(C(=O)NC2CCc3cc(Cl)ccc32)c(O)c1 (single isomer, unassigned) [Compound III-2, N-(5-chloroindan-1-yl)-2-hydroxy-4-methoxy-benzamide]
≤ 1000 | CNS(=O)(=O)c1ccc(C(=O)N[C@H]2CCCc3cc(Cl)ccc32)s1 (single isomer, unassigned) [Compound I-22]
≤ 1000 | O=C(N[C@@H]1CCc2cc(Cl)ccc21)c1ccc(S(=O)(=O)N2CCC2)s1 [Compound I-19]
1000 to 20000 | CN(C)C(=O)c1ccc(C(=O)N[C@@H]2CCc3cc(Cl)ccc32)cc1 [Compound II-23]
≤ 1000 | O=C(N[C@@H]1CCc2cc(Cl)ccc21)c1ccccc1O [Compound III-3]
≤ 1000 | CC(=O)N(C)Cc1ccc(C(=O)N[C@@H]2CCc3cc(Cl)ccc32)s1 [Compound I-39]
≤ 1000 | O=C(N[C@@H]1CCc2cc(Cl)ccc21)c1ccc(S(=O)(=O)C2CC2)s1 [Compound I-21]
1000 to 20000 | NC(=O)c1ccc(C(=O)N[C@@H]2CCc3cc(Cl)ccc32)cc1 [Compound II-26]
≥ 20000 | NS(=O)(=O)c1c[nH]c(C(=O)N[C@@H]2CCc3cc(Cl)ccc32)c1 [Compound I-14]
≤ 1000 | CN(C)C(=O)c1ccc(C(=O)N[C@@H]2CCc3cc(Cl)ccc32)s1 [Compound I-29]
≤ 1000 | CS(=O)(=O)c1ncc(C(=O)N[C@@H]2CCc3cc(Cl)ccc32)s1 [Compound I-27]
1000 to 20000 | Nc1ccc(C(=O)N[C@@H]2CCc3cc(Cl)ccc32)cc1 [Compound II-9, 4-amino-N-[(1R)-5-chloroindan-1-yl]benzamide]
1000 to 20000 | CN(c1ccc(C(=O)N[C@H]2CCc3cc(Cl)ccc32)cc1)S(=O)(=O)C(F)(F)F [Compound II-21]
≥ 20000 | Cc1cccc(O)c1C(=O)N[C@@H]1CCc2cc(Cl)ccc21 [Compound III-17]
≤ 1000 | CN(c1ccc(C(=O)N[C@@H]2CCc3cc(Cl)ccc32)cc1)S(=O)(=O)C1CC1 [Compound II-14]
≤ 1000 | CS(=O)(=O)Nc1ccc(C(=O)NC2CCc3cc(C(F)(F)F)ccc32)cc1 (single isomer, unassigned) [Compound II-56, 4-(methanesulfonamido)-N-[5-(trifluoromethyl)indan-1-yl]benzamide]
≥ 20000 | Cc1cc(S(N)(=O)=O)oc1C(=O)N[C@@H]1CCc2cc(Cl)ccc21 [Compound I-12]
≥ 20000 | O=C(N[C@H]1CCc2cc(Cl)ccc21)c1ccc(F)cc1 (single isomer, unassigned) [Compound II-41]
1000 to 20000 | Cc1cc(S(N)(=O)=O)sc1C(=O)N[C@@H]1CCc2cc(Cl)ccc21 [Compound I-10]
1000 to 20000 | COCCS(=O)(=O)c1ccc(C(=O)N[C@@H]2CCc3cc(Cl)ccc32)cc1 [Compound II-40]
1000 to 20000 | Cc1sc(C(=O)N[C@@H]2CCc3cc(Cl)ccc32)cc1S(N)(=O)=O [Compound I-8]
